Each block holds one compound with its values, some of them ahead of it. Calls of active or inactive are those of the source. The rule behind the calls is not given here.
Tests used:
HOP-62 = assay: Antiproliferative activity against human HOP62 cells at 10 uM after 24 hrs by SRB assay; assay type: functional, cell-based
B16-F10 [1] = assay: Antiproliferative activity against mouse B16F10 cells assessed as higher lowest toxic concentration after 48 hrs by MTT assay relative to control; assay type: functional
U-251 = assay: Antiproliferative activity against human U251 cells at 10 uM after 24 hrs by SRB assay; assay type: functional, cell-based
LOX IMVI = assay: Antiproliferative activity against human LOXIMVI cells at 10 uM after 24 hrs by SRB assay; assay type: functional; conditions: read-out: GI
A-431 [2] = assay: Antiproliferative activity against human A431 cells assessed as higher lowest toxic concentration after 48 hrs by MTT assay relative to control; assay type: functional
A-431 [3] = assay: Antiproliferative activity against human A431 cells at 10 uM after 48 hrs by MTT assay relative to control; assay type: functional
MDA-MB-435 [4] = assay: Antiproliferative activity against human MDA-MB-435 cells assessed as higher lowest toxic concentration after 48 hrs by MTT assay relative to control; assay type: functional
B16-F10 [5] = assay: Antiproliferative activity against mouse B16F10 cells at 10 uM after 48 hrs by MTT assay relative to control; assay type: functional
Huh-7 [6] = assay: Antiproliferative activity against human HuH7 cells at 10 uM after 48 hrs by MTT assay relative to control; assay type: functional
MDA-MB-231 [7] = assay: Antiproliferative activity against human MDA-MB-231 cells assessed as higher lowest toxic concentration after 48 hrs by MTT assay relative to control; assay type: functional
C6 [8] = assay: Cytotoxicity against rat C6 cells at 10 uM after 1 hr by LDH Assay; assay type: functional, cell-based
C6 [9] = assay: Antiproliferative activity against rat C6 cells after 48 hrs by MTT assay; assay type: functional, cell-based; conditions: C6, 48 h
C6 [10] = assay: Antiproliferative activity against rat C6 cells at 0.1 to 100 uM after 48 hrs by neutral red incorporation assay; assay type: functional, cell-based
NCI-H522 = assay: Antiproliferative activity against human NCI-H522 cells at 10 uM after 24 hrs by SRB assay; assay type: functional, cell-based
Caco-2 [11] = assay: Antiproliferative activity against human Caco2 cells assessed as higher lowest toxic concentration after 48 hrs by MTT assay relative to control; assay type: functional
MDA-MB-231 [12] = assay: Antiproliferative activity against human MDA-MB-231 cells at 10 uM after 48 hrs by MTT assay relative to control; assay type: functional
MDA-MB-468 = assay: Antiproliferative activity against human MDA-MB-468 cells at 10 uM after 24 hrs by SRB assay; assay type: functional, cell-based
UO-31 = assay: Antiproliferative activity against human UO31 cells at 10 uM after 24 hrs by SRB assay; assay type: functional; conditions: UO-31, 24 h, read-out: GI
MDA-MB-435 [13] = assay: Antiproliferative activity against human MDA-MB-435 cells at 10 uM after 48 hrs by MTT assay relative to control; assay type: functional
C6 [14] = assay: Antiproliferative activity against rat C6 cells assessed as higher lowest toxic concentration after 48 hrs by MTT assay relative to control; assay type: functional
Caco-2 [15] = assay: Antiproliferative activity against human Caco2 cells at 10 uM after 48 hrs by MTT assay relative to control; assay type: functional
DU-145 [16] = assay: Antiproliferative activity against human DU145 cells assessed as higher lowest toxic concentration after 48 hrs by MTT assay relative to control; assay type: functional
Huh-7 [17] = assay: Antiproliferative activity against human HuH7 cells assessed as higher lowest toxic concentration after 48 hrs by MTT assay relative to control; assay type: functional
SF-268 = assay: Antiproliferative activity against human SF268 cells at 10 uM after 24 hrs by SRB assay; assay type: functional, cell-based
SK-OV-3 = assay: Antiproliferative activity against human SKOV3 cells at 10 uM after 24 hrs by SRB assay; assay type: functional, cell-based
C6 [18] = assay: Antiproliferative activity against rat C6 cells at 10 uM after 48 hrs by MTT assay relative to control; assay type: functional
DU-145 [19] = assay: Antiproliferative activity against human DU145 cells at 10 uM after 48 hrs by MTT assay relative to control; assay type: functional
Caco-2 [20] = assay: Antiproliferative activity against human Caco2 cells at 1 uM after 48 hrs by MTT assay relative to control; assay type: functional
MDA-MB-435 [21] = assay: Antiproliferative activity against human MDA-MB-435 cells after 48 hrs by MTT assay; assay type: functional, cell-based; conditions: MDA-MB-435, 48 h
C6 [22] = assay: Cytotoxicity against rat C6 cells assessed as decrease in cell index at 1 uM after 3 hrs; assay type: functional, cell-based
A-431 [23] = assay: Antiproliferative activity against human A431 cells after 48 hrs by MTT assay; assay type: functional, cell-based; conditions: A-431, 48 h
C6 [24] = assay: Cytotoxicity against rat C6 cells assessed as decrease in cell index at 50 uM after 2 hrs; assay type: functional, cell-based
C6 [25] = assay: Cytotoxicity against rat C6 cells assessed as decrease in cell index at 5 uM after 3 hrs; assay type: functional, cell-based
MDA-MB-435 [26] = assay: Antiproliferative activity against human MDA-MB-435 cells at 1 uM after 48 hrs by MTT assay relative to control; assay type: functional
C6 [27] = assay: Antiproliferative activity against rat C6 cells at 1 uM after 48 hrs by MTT assay relative to control; assay type: functional
SNB-75 = assay: Antiproliferative activity against human SNB75 cells at 10 uM after 24 hrs by SRB assay; assay type: functional, cell-based
B16-F10 [28] = assay: Antiproliferative activity against mouse B16F10 cells after 48 hrs by MTT assay; assay type: functional, cell-based; conditions: B16-F10, 48 h
SF-295 = assay: Antiproliferative activity against human SF295 cells at 10 uM after 24 hrs by SRB assay; assay type: functional, cell-based
[29] = Cytotoxicity against mouse astrocytes assessed as decrease in cell viability at 1 to 100 uM after 48 hrs by neutral red incorporation assay; assay type: cell-based; conditions: astrocyte
Huh-7 [30] = assay: Antiproliferative activity against human HuH7 cells at 1 uM after 48 hrs by MTT assay relative to control; assay type: functional
C6 [31] = assay: Cytotoxicity against rat C6 cells assessed as decrease in cell index at 25 uM after 3 hrs; assay type: functional, cell-based
DU-145 [32] = assay: Antiproliferative activity against human DU145 cells after 48 hrs by MTT assay; assay type: functional, cell-based; conditions: DU-145, 48 h
MDA-MB-231 [33] = assay: Antiproliferative activity against human MDA-MB-231 cells at 1 uM after 48 hrs by MTT assay relative to control; assay type: functional
[34] = Cytotoxicity against mouse astrocytes assessed as decrease in cell viability at 1 to 100 uM after 48 hrs by propidium iodide incorporation assay; assay type: cell-based; conditions: astrocyte
B16-F10 [35] = assay: Antiproliferative activity against mouse B16F10 cells at 1 uM after 48 hrs by MTT assay relative to control; assay type: functional
Huh-7 [36] = assay: Antiproliferative activity against human HuH7 cells after 48 hrs by MTT assay; assay type: functional, cell-based; conditions: Huh-7, 48 h
Caco-2 [37] = assay: Antiproliferative activity against human Caco2 cells after 48 hrs by MTT assay; assay type: functional, cell-based; conditions: Caco-2, 48 h
Hs-578T = assay: Antiproliferative activity against human Hs 578T cells at 10 uM after 24 hrs by SRB assay; assay type: functional, cell-based
DU-145 [38] = assay: Antiproliferative activity against human DU145 cells at 1 uM after 48 hrs by MTT assay relative to control; assay type: functional, cell-based
[39] = Cytotoxicity against mouse astrocytes assessed as decrease in cell viability at 1 to 100 uM after 48 hrs by Hoechst 33342 staining; assay type: cell-based; conditions: astrocyte
C6 [40] = assay: Cytotoxicity against rat C6 cells assessed as decrease in cell index at 10 uM after 3 hrs; assay type: functional, cell-based
C6 [41] = assay: Cytotoxicity against rat C6 cells assessed as decrease in cell index at 100 uM after 1 hr; assay type: functional, cell-based
A-431 [42] = assay: Antiproliferative activity against human A431 cells at 1 uM after 48 hrs by MTT assay relative to control; assay type: functional

SMILES: O=[P@@]1(c2ccccc2)O[C@H](COCc2ccccc2)[C@@H](OCc2ccccc2)[C@H](OCc2ccccc2)[C@@H]1O
growth inhibition (GI) (HOP-62): Active
Activity (B16-F10 [1]): 25 µM
growth inhibition (GI) (U-251): Active
inhibition of growth at 10 µM (LOX IMVI): 45%
Activity (A-431 [2]): 5 µM
Activity (A-431 [3]): 33%
Activity (MDA-MB-435 [4]): 0.1 µM
Activity (B16-F10 [5]): inactive
Activity (Huh-7 [6]): 55%
Activity (MDA-MB-231 [7]): 5 µM
Activity (C6 [8]): Active
EC50 (C6 [9]): 23.8 µM
Activity (C6 [10]): Active
growth inhibition (GI) (NCI-H522): Active
Activity (Caco-2 [11]): 5 µM
Activity (MDA-MB-231 [12]): 18%
growth inhibition (GI) (MDA-MB-468): Active
inhibition of growth at 10 µM (UO-31): 50%
Activity (MDA-MB-435 [13]): 43%
Activity (C6 [14]): 0.1 µM
Activity (Caco-2 [15]): 15%
Activity (DU-145 [16]): 1 µM
Activity (Huh-7 [17]): 0.1 µM
growth inhibition (GI) (SF-268): Active
growth inhibition (GI) (SK-OV-3): Active
Activity (C6 [18]): 31%
Activity (DU-145 [19]): 14%

EC50 (MDA-MB-435 [21]): 13.9 µM
EC50 (A-431 [23]): 14.5 µM
EC50 (B16-F10 [28]): 4.9 µM
EC50 (DU-145 [32]): 65 µM
EC50 (Huh-7 [36]): 30 µM
EC50 (Caco-2 [37]): 57 µM
SMILES: O=[P@@]1(c2ccccc2)O[C@H](COCc2ccccc2)[C@@H](OCc2ccccc2)[C@H](OCc2ccccc2)[C@H]1O
Activity (Caco-2 [20]): 10%
Activity (C6 [22]): inactive
Activity (C6 [24]): Active
Activity (B16-F10 [1]): 0.5 µM
Activity (A-431 [2]): 0.1 µM
Activity (A-431 [3]): 32%
Activity (MDA-MB-435 [4]): 0.001 µM
Activity (C6 [25]): Active
Activity (B16-F10 [5]): 73%
Activity (MDA-MB-435 [26]): 22%
Activity (C6 [27]): 63%
Activity (Huh-7 [6]): 22%
Activity (MDA-MB-231 [7]): 0.1 µM
Activity (C6 [8]): Active
growth inhibition (GI) (SNB-75): Active
EC50 (C6 [9]): 0.52 µM
Activity (C6 [10]): Active
growth inhibition (GI) (SF-295): Active
Activity (Caco-2 [11]): 0.5 µM
Activity (MDA-MB-231 [12]): 30%
Activity (MDA-MB-435 [13]): 42%
Activity (C6 [14]): 0.001 µM
Activity (Caco-2 [15]): 43%
Activity [29]: Non-toxic
Activity (Huh-7 [30]): 16%
Activity (C6 [31]): Active
Activity (DU-145 [16]): 5 µM
Activity (MDA-MB-231 [33]): 17%
Activity (Huh-7 [17]): 0.1 µM
Activity [34]: Non-toxic
Activity (B16-F10 [35]): 25%
growth inhibition (GI) (Hs-578T): Active
Activity (DU-145 [38]): inactive
Activity (C6 [18]): 82%
Activity [39]: Non-toxic
Activity (C6 [40]): inactive
Activity (C6 [41]): Active
Activity (A-431 [42]): 18%
Activity (DU-145 [19]): 40%
